We go through two compounds from patent US20130022640A1, “IMMUNE MODULATORS RELATING TO FOXO3A” (Secretary, Department of Health and Human Services, priority 2010, published 2013).

Assay [1] concerns TcR-I T cells. Kind of assay: In vitro TcR-I proliferation and tolerance with TRAMP DCs and blocking agents. Type of assay: cell-based, mouse. As to the method:
Naïve TcR-I T cells were used as responder cells in a proliferation assay; 2×10^4 T cells were stimulated with antigen and 2×10^4 isolated prostatic DCs. After 72 h of culture, wells were pulsed with 1 μCi [^3H] thymidine (Amersham, Buckinghamshire, England) for 16 h. The cells were then harvested using a Cell Harvester (Tomtec, Hamden, Conn.) and radioactivity was measured in a Liquid Scintillation Counter (WALLAC MICROBETA™ TriLux, PerkinElmer, Waltham, Mass.).
Naïve TcR-I T cells were co-cultured with DC for 72 hours. TcR-I cells were then re-isolated via negative selection with magnetic beads. To assess tolerance, TcR-I T cells were subjected to secondary stimulation with normal splenocytes and TAg. After 48 hours, wells were pulsed with 1 μCi [^3H] thymidine (Amersham, Buckinghamshire, England) for 12 hours. […] One μCi of [^3H] thymidine per well was added for an additional 16 h and harvested as described above.
(§1) To investigate the effects of blocking IDO in vitro, 1MDT was also added to purified DC cultures to inhibit IDO activity during DC stimulation of TcR-I proliferation (FIG. 6A). Tolerance was assessed by testing secondary stimulation 4 days after primary culture with 1 MDT, a blocking agent to suppressive mediator IDO (FIG. 6D).
To investigate the effects of blocking PD-1 in vitro, anti-PD-1 antibody was added to cultures of TcR-I T cells and TRAMP or WT prostate DCs. Tolerance was assessed by testing secondary stimulation 4 days after primary culture with blocking agents, including anti-PD-1 antibody, to suppressive mediators (FIG. 6D).

Assay [2] deals with TcR-I T cells. Description: ELISPOT (IFN-γ, granzyme B) of TcR-I T cells re-isolated from treated TRAMP mice. In kind it is in vivo, mouse. As to the method: (§2) Lymph node (LN) cells from TcR-I mice were prepared in a single-cell suspension. Cell numbers were adjusted to 3×10^6 TcR-I cells to be transferred intravenously (i.v.) into recipient mice. In some experiments, inhibitors to IDO (1-methly-D-tryptophan, 1MDT) and arginase ((S) 2-bronoethyl)-L-cysteine (BEC)) were added to the drinking water every 3 days (5 μg/ml).
(§3) A blocking anti-PD-1 antibody (Ab) (clone RMP1-14) (Yamazaki et al., J. Immunol., 175: 1586-1592 (2005)) was administered by intraperitoneal (i.p.) injection on days 0, 1, and 3 with respect to adoptive transfer of TcR-I T cells (250 μg/injection). Anti-TGF-β Ab was injected i.p. on days −1,0,1 and 2 with respect to TcR-I transfer (500 μg/injection). Anti-CD317 Ab (5 μg) (kindly provided by Dr. Marco Colonna) was injected i.p. on days −1 and 0 with respect to TcR-I transfer (Blasius et al., J. Immunol., 177: 3260-3265 (2006)).
Multiscreen plates (Millipore, Billerica, Mass.) were coated with 100 μl of capture Ab (R&D Systems Inc., Minneapolis, Minn.) overnight at 4° C. IFN-γ (1×10^5) or granzyme B (2×10^4) purified Thy 1.1^+ TcR T cells were added to increasing concentrations of TAg560-568. After incubation, plates were washed and processed as previously described (Shafer-Weaver et al., Cancer Research, 69: 6256-6264 (2009)).
It was next determined whether in vivo depletion of TADCs enhanced TcR-I effector function. TADCs were depleted via i.p. injection of anti-CD317 Ab into TRAMP mice. TcR-I T cells were then transferred into TRAMP mice with or without DC depletion. T cells were re-isolated on days 6 (FIGS. 3A and 3B) or 12 (FIGS. 3C and 3D) after transfer to assess CTL effector function.
Selective amino acid catabolism is a previously-described mechanism of immune dysfunction in cancer (Bronte et al., J. Exp. Med., 201: 1257-1268 (2005); Sharma et al., J. Clin. Invest., 117: 2570-2582 (2007); Srivastava et al., Cancer Res., 70: 68-77 (2010)). […]

In a further assay the test system is TRAMP mice. Kind of assay: UGT and prostate weights (tumor burden) after TcR-I transfer. Type of assay: in vivo, mouse. The following applies: day 12 after TcR-I transfer, vs control/untreated. As to the method:
as §2, §3
Control antibody or anti-CD317 antibody was injected i.p. into TRAMP mice on days −1 and 0 relative to T cell transfer. Weights of total urogenital tract (UGT) and dissected prostates were obtained at day 12. […]
Given the enhanced effector functions seen following inhibitory molecule blockade, the effect of blocking these suppressive mediators on anti-tumor immunity was tested. […] UGT weights (FIG. 7A) and prostate weights (FIG. 7B) were assessed on day 12 after TcR-I transfer.

In assay [3] the test system is TcR-I T cells. Description: In vitro suppressor assay after 4 day culture of TcR-I T cells with TRAMP DC and blocking agents. Type of assay: cell-based, mouse. Conditions: TRAMP DC + agent. The protocol: Naïve TcR-I T cells were co-cultured with DC for 72 hours. TcR-I cells were then re-isolated via negative selection with magnetic beads. To assess tolerance, TcR-I T cells were subjected to secondary stimulation with normal splenocytes and TAg. After 48 hours, wells were pulsed with 1 μCi [^3H] thymidine (Amersham, Buckinghamshire, England) for 12 hours. To assess suppressor activity, graded numbers of TcR-I T cells were added to 1×10^4 responder 37B7 TRP-2-specific T cells (Singh et al., J. Immunother., 32: 129-139 (2009)), 1×10^5 splenocytes, and 5 μM TRP-2, and incubated for 72 h at 37° C. One μCi of [^3H] thymidine per well was added for an additional 16 h and harvested as described above.
as §1
To investigate the effects of blocking PD-1 in vitro, anti-PD-1 antibody was added to cultures of TcR-I T cells and TRAMP or WT prostate DCs. Tolerance was assessed by testing secondary stimulation 4 days after primary culture with blocking agents, including anti-PD-1 antibody, to suppressive mediators (FIG. 6D). Suppressor activity was also measured after 4 day culture with blocking agents, including anti-PD-1 antibody, and the results are shown in Table 9.

Where [4] appears, read: 6 days after transfer into TRAMP mice, vs untreated/control Ab.

`N=C(NO)NCC[C@H](N)C(=O)O` [Nor-NOHA]: the “TcR-I responsiveness (block of in vitro tolerization)” value in the assay with TcR-I T cells [1] (blocking ARG in vitro) was “did not enhance TcR-I responsiveness”.
In the case of `Cn1cc(C[C@@H](N)C(=O)O)c2ccccc21` [1MDT, 1-methyl-D-tryptophan], in the assay with TcR-I T cells [2] (setting [4]), the “IFN-γ secretion by TcR-I T cells” value is given as “significantly increased”. Also, in the assay with TcR-I T cells [2] (setting [4]), the “granzyme B secretion by TcR-I T cells” value is “significantly increased”. Further, the “TcR-I T cell antigen responsiveness” value in the assay on TcR-I T cells [2] (day 12 after transfer / 12 days of treatment, TRAMP mice) is “loss of antigen responsiveness”. Also, the “TADC-stimulated TcR-I proliferation” value in the assay with TcR-I T cells [1] (agent added to in vitro culture, primary stimulation) was “enhanced”. The “tolerization of TcR-I T cells during co-culture” value in the assay with TcR-I T cells [1] (secondary stimulation 4 days after primary culture with agent) was “did not prevent them from becoming tolerized”. In addition, the prostate weight result in the assay with TRAMP mice is “statistically significant decrease”. Besides, in the assay with TRAMP mice, the “total urogenital tract (UGT) weight” value is “statistically significant decrease”. Besides, the “% Suppression for Each Source of Primary Stimulation” value was 20% with TcR-I T cells [3] (Suppressor:Responder 1:1), 15% in the assay on TcR-I T cells [3] (Suppressor:Responder 1:2), 8% in the assay with TcR-I T cells [3] (Suppressor:Responder 1:4) and 30% with TcR-I T cells [3] (Suppressor:Responder 2:1).
